Laboratory results as given in ChEMBL document CHEMBL4396901, “Discovery of Potent and Noncovalent Reversible EGFR Kinase Inhibitors of EGFRL858R/T790M/C797S” (ACS Med Chem Lett, 2019).
The source made the active and inactive calls. No cut-off for these calls is given here.

How the values were obtained:
[1] = test system: Epidermal growth factor receptor (Homo sapiens), P00533 [L858R,T790M,C797S]; assay: (§1) Inhibition of recombinant human C-terminal His-tagged/N-terminal GST-tagged EGFR (668 to 1210 residues) T790M/L858R/C797S mutant expressed in baculovirus expression system using poly (Glu,Tyr) 4:1 as substrate incubated for 1 hr in presence of ATP by ELISA
[2] = biological target: Epidermal growth factor receptor (Homo sapiens, UniProt P00533, C797S/L858R/T790M); assay: as §1
Chain of Epidermal growth factor receptor (P00533 whole entry T790M/C797S/L858R): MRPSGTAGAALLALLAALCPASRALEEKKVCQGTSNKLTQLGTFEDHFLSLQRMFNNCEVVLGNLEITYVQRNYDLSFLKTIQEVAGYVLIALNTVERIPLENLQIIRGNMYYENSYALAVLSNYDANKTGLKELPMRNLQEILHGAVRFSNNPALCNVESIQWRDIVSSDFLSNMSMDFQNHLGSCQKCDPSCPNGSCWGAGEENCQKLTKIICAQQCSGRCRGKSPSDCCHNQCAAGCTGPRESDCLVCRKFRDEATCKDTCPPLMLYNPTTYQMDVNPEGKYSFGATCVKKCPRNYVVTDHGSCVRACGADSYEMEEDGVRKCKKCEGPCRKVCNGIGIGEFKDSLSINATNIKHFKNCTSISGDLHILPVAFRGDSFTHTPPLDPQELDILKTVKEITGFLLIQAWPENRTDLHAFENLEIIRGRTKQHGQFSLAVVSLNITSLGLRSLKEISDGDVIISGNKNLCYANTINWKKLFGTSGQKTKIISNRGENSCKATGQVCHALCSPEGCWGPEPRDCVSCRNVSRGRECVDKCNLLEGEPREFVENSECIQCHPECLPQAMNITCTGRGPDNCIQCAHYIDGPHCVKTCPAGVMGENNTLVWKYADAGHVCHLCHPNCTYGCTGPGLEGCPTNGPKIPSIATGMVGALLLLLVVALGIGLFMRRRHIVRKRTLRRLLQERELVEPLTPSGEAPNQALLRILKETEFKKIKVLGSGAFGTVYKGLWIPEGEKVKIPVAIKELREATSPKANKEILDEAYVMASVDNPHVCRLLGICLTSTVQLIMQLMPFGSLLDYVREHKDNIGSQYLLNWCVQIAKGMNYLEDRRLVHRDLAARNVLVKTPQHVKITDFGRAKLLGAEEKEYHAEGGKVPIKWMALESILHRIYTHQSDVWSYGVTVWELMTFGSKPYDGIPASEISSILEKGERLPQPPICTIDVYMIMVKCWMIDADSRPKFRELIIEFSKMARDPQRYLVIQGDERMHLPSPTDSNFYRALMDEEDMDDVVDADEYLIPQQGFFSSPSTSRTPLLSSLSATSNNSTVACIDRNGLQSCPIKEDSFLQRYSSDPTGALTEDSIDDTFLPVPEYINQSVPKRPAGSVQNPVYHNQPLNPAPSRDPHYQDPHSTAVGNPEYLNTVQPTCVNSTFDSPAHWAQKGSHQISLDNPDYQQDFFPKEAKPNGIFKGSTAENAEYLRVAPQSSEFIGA

Chain of Epidermal growth factor receptor (Homo sapiens), P00533 [L858R,T790M,C797S] (P00533 whole entry T790M/C797S/L858R, the tested form may be a part): as the sequence (P00533 whole entry T790M/C797S/L858R) above

Compound | inhibition [1] | IC50 [2]
COc1cc2c(Nc3ccc(NC(=O)CC4Cc5ccccc5C4)cc3F)ncnc2cc1OCC1CCN(C)CC1 | inactive | –
COc1cc2c(Nc3cc(NC(=O)C(c4ccccc4)N4Cc5ccccc5C4=O)ccc3F)ncnc2cc1OCC1CCN(C)CC1 (stereo not given) | – | 37.1 nM
COc1cc2c(Nc3ccc(NC(=O)C(c4ccccc4)c4ccccc4)cc3F)ncnc2cc1OCC1CCN(C)CC1 | inactive | –
COc1cc2ncnc(Nc3ccc(NC(=O)C(c4ccccc4)N4Cc5ccccc5C4=O)cc3F)c2cc1OC (stereo not given) | Active | –
COc1cc2c(Nc3ccc(NC(=O)Cc4ccccc4)cc3F)ncnc2cc1OCC1CCN(C)CC1 | inactive | –
COc1cc2c(Nc3ccc(NC(=O)C(C)c4ccccc4)cc3F)ncnc2cc1OCC1CCN(C)CC1 (stereo not given) | inactive | –
COc1cc2c(Nc3cc(NC(=O)CC4Cc5ccccc5C4)ccc3F)ncnc2cc1OCC1CCN(C)CC1 | inactive | –
COc1cc2c(Nc3ccc(NC(=O)C(c4ccccc4)C(C)C)cc3F)ncnc2cc1OCC1CCN(C)CC1 (stereo not given) | inactive | –
COc1cc2c(Nc3ccc(NC(=O)C(c4ccccc4)N4Cc5ccccc5C4=O)cc3F)ncnc2cc1OCC1CCN(C)CC1 (stereo not given) | – | 9.3 nM
COc1cc2c(Nc3ccc(NC(=O)c4ccccc4)cc3F)ncnc2cc1OCC1CCN(C)CC1 | inactive | –
